Laboratory results: patent US11352316B2, “Opioid receptor modulators and products and methods related thereto” (priority 2018, dated 2022)

How the values were obtained:
Male Sprague-Dawley rats = experiment: Hot plate assay; type: in vivo; conditions: rat, SC
Experimental: Male Sprague-Dawley rats weighing 275-300 grams were used in the study, n=8-10 per group. Animals are injected SC with 0.9% normal saline solution. At 15, 45, and 80 min after the injection, animals were placed onto a hotplate set to 52 degrees centigrade, and baseline latency is recorded (baseline latency=average time to 2nd withdrawal response consisting of either a lick of a rear paw, shaking a rear paw, backwards walking or jumping). A day later animals were injected SC with test compounds either in vehicle solution, or with a mix of compounds in solution. Next the test latency was recorded (test latency=time to withdrawal on the hotplate measured at 15, 45, 80, 120, 180 and 240 min using the procedure described). Times were then converted to % maximum possible effect (% MPE)=(test_latecy−baseline_latency)/(30 sec−baseline_latency); where 30 sec is the cutoff where the animal is removed if no response ifs observed as it is the time point at which injury is expected to occur.

mu opioid receptor (MOR) = target: T1, mu opioid receptor (MOR) (Homo sapiens, UniProt P35372); experiment: MOR GTPγS agonist assay (membranes, SPA beads); type: biochemical; conditions: membranes of CHO-K1 cells over-expressing MOR
T1 construct: host or cells: CHO-K1
Text: Membranes obtained from the stable cell lines over-expressing MOR were subjected to GTPγS assay using SPA beads (Perkin Elmer, Cat #RPNQ0001).

T1 sequence (P35372 whole entry): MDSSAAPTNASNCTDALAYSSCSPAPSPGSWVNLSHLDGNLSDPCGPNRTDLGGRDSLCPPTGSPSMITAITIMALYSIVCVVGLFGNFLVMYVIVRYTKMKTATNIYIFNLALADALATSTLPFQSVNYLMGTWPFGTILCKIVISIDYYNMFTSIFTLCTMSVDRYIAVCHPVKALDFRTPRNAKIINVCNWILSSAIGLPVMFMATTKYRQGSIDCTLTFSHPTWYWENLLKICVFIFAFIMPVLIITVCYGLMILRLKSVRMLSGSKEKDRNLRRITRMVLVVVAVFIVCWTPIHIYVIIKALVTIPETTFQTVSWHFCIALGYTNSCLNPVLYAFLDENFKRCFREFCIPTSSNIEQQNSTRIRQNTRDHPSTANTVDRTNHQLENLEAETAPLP

## CN(C)[C@H](CNC(=O)[C@@H]1C[C@]1(C)c1ccccc1)Cc1ccc(O)cc1Cl [Compound B-15, (1R,2S)—N—((S)-3-(2-chloro-4-hydroxyphenyl)-2-(dimethylamino)propyl)-2-methyl-2-phenylcyclopropane-1-carboxamide]
Male Sprague-Dawley rats; co-dosed with Compound B-56, FIG. 1
  effect on the analgesic activity of agonist Compound B-56 in the hotplate test: blocks in vivo the analgesic activity of the agonist Compound B-56
Male Sprague-Dawley rats; dosed alone, FIG. 1
  effect on its own in the hotplate test: no effect on its own

## Cc1cc(O)ccc1C[C@@H](CNC(=O)[C@@H]1C[C@@]1(C)c1ccccc1)N(C)C [Compound B-56, (1R,2R)—N—((S)-2-(dimethylamino)-3-(4-hydroxy-2-methylphenyl)propyl)-2-methyl-2-phenylcyclopropane-1-carboxamide]
Male Sprague-Dawley rats; hotplate 52 degrees centigrade, FIG. 1
  analgesic activity in the hotplate test (time to withdrawal response, % MPE): analgesic

## CNC(=O)c1ccc(C[C@@H](CNC(=O)c2ccc(Cl)cc2Cl)N(C)C)cc1F [Compound C-37, (S)-2,4-dichloro-N-(2-(dimethylamino)-3-(3-fluoro-4-(methylcarbamoyl)phenyl)propyl) benzamide]
Mu opioid receptor (MOR)
  EC50: < 100 nM

## CNC(=O)c1cc(C)c(C[C@@H](CNC(=O)c2ccccc2OC)N(C)C)c(C)c1 [Compound C-68, (S)-4-(2-(dimethylamino)-3-(2-methoxybenzamido)propyl)-N,3,5-trimethylbenzamide]
Mu opioid receptor (MOR)
  EC50: < 100 nM
